Source: patent publication US20260232578A1, “COMPOSITIONS AND METHODS FOR TRANSMUCOSAL ABSORPTION” (Tonix Pharma Limited, priority 2012, published 2026)
pIC50, pKi: −log10 of the molar value. “And” between values parts separate entries of the source, which are not always exact repeats. Equal entries are not always repeated. Where two headings read alike, the source gives them in different places.

Legend:
[1] = target: 5-HT transporter (Homo sapiens, UniProt P31645); assay: Equilibrium binding to transporters (FIG. 19); conditions: Serotonin TP (transporter)
Chain of 5-HT transporter (P31645 whole entry): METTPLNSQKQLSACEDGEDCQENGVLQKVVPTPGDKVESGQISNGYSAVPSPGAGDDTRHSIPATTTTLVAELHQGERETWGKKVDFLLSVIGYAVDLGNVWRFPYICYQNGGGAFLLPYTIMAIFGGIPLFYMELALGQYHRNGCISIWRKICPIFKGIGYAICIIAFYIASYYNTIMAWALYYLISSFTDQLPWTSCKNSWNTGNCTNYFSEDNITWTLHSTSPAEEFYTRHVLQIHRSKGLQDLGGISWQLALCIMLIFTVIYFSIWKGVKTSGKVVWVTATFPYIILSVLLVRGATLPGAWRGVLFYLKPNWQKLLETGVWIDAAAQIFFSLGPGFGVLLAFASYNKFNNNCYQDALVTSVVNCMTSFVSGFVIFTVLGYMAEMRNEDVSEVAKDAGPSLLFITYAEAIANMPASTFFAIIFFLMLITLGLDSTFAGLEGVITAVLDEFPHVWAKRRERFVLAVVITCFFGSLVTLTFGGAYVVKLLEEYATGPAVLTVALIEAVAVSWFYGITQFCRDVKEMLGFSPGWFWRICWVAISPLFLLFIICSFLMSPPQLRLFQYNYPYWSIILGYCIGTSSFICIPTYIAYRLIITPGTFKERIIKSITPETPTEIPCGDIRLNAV

[2] = target: Sigma 1 (Homo sapiens, UniProt Q99720); assay: Equilibrium binding (Table 69)
Chain of Sigma 1 (Q99720 whole entry): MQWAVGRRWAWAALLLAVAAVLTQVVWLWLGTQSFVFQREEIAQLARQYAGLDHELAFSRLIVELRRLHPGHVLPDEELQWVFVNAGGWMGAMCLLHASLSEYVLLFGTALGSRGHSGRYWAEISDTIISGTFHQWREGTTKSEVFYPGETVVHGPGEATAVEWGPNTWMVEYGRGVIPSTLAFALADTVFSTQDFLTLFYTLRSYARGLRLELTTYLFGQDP

[3] = target: T1, D4.4 (Homo sapiens, UniProt P21917); assay: Equilibrium receptor binding, recombinant human receptor
T1 construct: expressed in transfected cells
T1 sequence (P21917 whole entry): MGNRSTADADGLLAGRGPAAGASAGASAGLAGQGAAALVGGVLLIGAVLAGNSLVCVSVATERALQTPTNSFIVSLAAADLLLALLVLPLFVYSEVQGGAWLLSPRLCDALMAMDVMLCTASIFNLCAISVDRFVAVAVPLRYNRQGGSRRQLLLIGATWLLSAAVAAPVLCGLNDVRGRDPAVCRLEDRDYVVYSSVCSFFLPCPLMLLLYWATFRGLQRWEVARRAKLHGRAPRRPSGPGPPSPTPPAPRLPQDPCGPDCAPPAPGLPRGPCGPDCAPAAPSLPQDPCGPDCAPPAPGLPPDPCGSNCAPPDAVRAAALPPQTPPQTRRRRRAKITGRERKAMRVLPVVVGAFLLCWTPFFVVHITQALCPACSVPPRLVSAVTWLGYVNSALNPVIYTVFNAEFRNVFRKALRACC

[4] = target: T2, adrenergic alpha-2A receptor (Alpha2A) (Homo sapiens, UniProt P08913); assay: as above
T2 construct: expressed in transfected cells
T2 sequence (P08913 1-465): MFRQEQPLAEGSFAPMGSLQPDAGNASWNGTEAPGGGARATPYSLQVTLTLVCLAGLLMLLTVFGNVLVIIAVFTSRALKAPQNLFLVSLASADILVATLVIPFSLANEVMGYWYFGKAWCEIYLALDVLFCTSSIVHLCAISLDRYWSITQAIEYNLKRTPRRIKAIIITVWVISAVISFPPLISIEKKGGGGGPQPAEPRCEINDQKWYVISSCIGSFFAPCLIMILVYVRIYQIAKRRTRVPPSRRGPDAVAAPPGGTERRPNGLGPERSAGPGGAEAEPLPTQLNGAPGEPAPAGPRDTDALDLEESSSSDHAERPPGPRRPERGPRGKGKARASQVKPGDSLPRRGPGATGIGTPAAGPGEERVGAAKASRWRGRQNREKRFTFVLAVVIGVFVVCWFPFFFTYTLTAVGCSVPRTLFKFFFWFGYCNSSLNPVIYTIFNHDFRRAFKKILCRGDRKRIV

[5] = target: T3, adrenergic alpha-2B receptor (Alpha2B) (Homo sapiens, UniProt P18089); assay: as above
T3 construct: expressed in transfected cells
T3 sequence (P18089 whole entry): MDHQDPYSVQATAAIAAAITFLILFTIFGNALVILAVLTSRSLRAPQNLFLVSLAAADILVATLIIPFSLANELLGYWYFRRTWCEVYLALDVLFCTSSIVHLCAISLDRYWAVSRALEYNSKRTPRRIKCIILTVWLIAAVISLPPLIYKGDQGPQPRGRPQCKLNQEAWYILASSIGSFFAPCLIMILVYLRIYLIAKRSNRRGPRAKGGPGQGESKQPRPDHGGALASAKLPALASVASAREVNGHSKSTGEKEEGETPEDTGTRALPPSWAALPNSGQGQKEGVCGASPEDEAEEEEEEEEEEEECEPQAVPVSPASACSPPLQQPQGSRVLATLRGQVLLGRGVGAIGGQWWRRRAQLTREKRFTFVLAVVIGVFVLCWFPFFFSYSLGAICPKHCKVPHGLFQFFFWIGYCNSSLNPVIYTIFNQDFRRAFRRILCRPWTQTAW

[6] = target: 5-HT6 (Homo sapiens, UniProt P50406); assay: Functional antagonism (Table 69)
Chain of 5-HT6 (P50406 whole entry): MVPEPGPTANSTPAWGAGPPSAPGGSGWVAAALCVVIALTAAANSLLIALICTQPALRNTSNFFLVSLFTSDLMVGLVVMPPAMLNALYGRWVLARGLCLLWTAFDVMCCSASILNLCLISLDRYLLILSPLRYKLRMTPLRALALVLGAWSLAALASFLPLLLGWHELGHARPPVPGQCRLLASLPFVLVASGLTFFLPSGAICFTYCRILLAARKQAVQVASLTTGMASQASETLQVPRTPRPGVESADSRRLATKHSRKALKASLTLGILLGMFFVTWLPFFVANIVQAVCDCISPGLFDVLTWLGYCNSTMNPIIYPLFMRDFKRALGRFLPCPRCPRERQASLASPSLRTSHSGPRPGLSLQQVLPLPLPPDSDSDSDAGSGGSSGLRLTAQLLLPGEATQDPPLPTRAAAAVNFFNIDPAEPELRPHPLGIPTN

[7] = target: T4, histamine H1 receptor (Homo sapiens, UniProt P35367); assay: G-protein-dependent signal transduction, intracellular Ca2+ mobilization; type: cell-based; conditions: for pIC50: H1, Ca2+ mobilization, read-out: IC50, functional antagonist
T4 construct: expressed in transfected cells
T4 sequence (P35367 whole entry): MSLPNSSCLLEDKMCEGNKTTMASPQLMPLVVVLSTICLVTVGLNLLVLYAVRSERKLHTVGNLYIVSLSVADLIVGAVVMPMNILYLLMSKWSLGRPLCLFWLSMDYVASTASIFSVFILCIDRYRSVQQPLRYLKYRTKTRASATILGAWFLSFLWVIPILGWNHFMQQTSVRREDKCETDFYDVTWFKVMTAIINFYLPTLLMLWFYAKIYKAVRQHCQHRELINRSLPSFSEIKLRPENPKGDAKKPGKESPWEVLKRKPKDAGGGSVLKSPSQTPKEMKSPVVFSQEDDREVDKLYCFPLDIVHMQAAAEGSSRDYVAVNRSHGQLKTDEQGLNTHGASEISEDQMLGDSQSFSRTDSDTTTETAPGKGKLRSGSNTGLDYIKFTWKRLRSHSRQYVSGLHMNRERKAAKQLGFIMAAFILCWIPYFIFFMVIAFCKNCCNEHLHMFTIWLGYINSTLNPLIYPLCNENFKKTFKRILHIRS

[8] = target: T4, histamine H1 receptor; assay: Equilibrium receptor binding, recombinant human receptor; conditions: for pKi: H1
[9] = target: Sigma 2 (Homo sapiens, UniProt Q5BJF2); assay: Equilibrium binding (Table 69)
Chain of Sigma 2 (Q5BJF2 whole entry): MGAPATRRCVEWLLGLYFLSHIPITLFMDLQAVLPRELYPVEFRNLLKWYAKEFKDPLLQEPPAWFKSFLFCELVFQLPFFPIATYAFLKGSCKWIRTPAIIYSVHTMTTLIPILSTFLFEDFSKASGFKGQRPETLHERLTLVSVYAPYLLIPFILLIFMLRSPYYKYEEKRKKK

[10] = target: T5, 5-HT2B (Homo sapiens, UniProt P41595); assay: G-protein-dependent signal transduction, intracellular Ca2+ mobilization; type: cell-based; conditions: for pIC50: Ca2+ mobilization, read-out: IC50, functional antagonist
T5 construct: expressed in transfected cells
T5 sequence (P41595 whole entry): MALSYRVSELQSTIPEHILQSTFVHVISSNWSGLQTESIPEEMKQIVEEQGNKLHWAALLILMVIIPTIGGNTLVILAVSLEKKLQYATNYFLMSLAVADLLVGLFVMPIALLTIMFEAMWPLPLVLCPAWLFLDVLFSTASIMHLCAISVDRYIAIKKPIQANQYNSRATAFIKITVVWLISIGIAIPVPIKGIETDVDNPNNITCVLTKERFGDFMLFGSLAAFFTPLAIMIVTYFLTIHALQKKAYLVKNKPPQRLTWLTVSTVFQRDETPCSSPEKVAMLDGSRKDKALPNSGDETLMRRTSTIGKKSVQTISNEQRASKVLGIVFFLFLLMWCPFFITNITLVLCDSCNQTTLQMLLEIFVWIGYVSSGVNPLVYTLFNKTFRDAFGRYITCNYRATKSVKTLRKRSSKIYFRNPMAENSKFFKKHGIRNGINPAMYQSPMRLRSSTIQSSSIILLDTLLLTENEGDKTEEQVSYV
Method: (§1) Quantitation was based on peak area ratio of the analytes versus their stable labeled internal standards. A weighted (1/C2), linear regression was performed to determine the concentration of the analytes. All regressions and figures presented in this validation report were generated by MDS Sciex Analyst version 1.4.2 and Thermo Electron Corporation Watson LIMS software, version 7.0.0.01b. […] Select receptors were analyzed in ligand-induced intracellular calcium mobilization.

[11] = target: T6, 5-HT2C receptor (Homo sapiens, UniProt P28335); assay: as above; type: cell-based; conditions: for pIC50: 5-HT2c, read-out: IC50, functional antagonist
T6 construct: expressed in transfected cells
T6 sequence (P28335 33-458): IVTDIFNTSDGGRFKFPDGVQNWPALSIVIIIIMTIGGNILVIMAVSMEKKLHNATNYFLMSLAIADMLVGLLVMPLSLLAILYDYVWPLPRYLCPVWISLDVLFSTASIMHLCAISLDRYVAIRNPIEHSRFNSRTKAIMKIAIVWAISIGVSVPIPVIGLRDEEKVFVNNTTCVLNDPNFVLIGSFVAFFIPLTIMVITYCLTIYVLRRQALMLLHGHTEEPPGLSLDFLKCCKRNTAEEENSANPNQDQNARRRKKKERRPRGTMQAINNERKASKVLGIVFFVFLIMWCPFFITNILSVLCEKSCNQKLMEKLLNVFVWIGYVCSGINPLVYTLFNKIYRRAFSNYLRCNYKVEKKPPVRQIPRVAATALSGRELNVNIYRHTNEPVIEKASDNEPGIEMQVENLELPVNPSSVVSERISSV
Method: as §1

[12] = target: T7, 5-HT2A (Homo sapiens, UniProt P28223); assay: as above; type: cell-based; conditions: for pIC50: Ca2+ mobilization, read-out: IC50, functional antagonist
T7 construct: expressed in transfected cells
T7 sequence (P28223 whole entry): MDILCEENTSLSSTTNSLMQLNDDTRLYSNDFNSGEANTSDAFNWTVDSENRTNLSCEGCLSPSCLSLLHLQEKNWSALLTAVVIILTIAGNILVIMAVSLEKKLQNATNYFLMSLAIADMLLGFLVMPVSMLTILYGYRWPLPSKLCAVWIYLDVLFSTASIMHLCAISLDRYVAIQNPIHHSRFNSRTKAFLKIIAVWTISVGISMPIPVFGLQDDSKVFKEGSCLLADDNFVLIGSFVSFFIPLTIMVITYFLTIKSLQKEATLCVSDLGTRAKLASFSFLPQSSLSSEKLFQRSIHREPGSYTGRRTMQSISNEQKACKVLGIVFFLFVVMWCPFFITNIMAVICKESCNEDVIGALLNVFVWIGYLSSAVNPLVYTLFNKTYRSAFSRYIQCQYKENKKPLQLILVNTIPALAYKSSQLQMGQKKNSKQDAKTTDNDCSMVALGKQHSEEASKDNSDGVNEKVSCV
Method: as §1

[13] = target: T8, muscarinic M1 receptor (Homo sapiens, UniProt P11229); assay: as above; type: cell-based; parameters: expressed in transfected cells; conditions: for pIC50: M1, Ca2+ mobilization, read-out: IC50, functional antagonist
T8 sequence (P11229 1-460): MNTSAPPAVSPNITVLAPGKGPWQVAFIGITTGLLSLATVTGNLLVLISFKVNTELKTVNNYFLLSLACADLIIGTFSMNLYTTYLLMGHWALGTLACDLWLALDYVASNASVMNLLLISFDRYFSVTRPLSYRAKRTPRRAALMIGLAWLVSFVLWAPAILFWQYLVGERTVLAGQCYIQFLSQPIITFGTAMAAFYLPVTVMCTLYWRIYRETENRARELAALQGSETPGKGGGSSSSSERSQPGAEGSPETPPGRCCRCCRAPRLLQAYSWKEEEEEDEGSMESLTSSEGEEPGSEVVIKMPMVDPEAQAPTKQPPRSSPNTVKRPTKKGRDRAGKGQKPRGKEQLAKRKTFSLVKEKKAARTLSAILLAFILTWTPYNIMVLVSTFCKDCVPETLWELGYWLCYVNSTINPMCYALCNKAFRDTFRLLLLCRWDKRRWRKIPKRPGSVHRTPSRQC

[14] = read-out: IC50 (nM) (Antagonist)

## CNCCC=C1c2ccccc2C=Cc2ccccc21 [norcyclobenzaprine, 3-(5H-dibenzo[a,d]cyclohepten-5-ylidene)-N-methyl-1-propanamine]
[1]
  pKi: 7.54
[2]
  pKi: 6.92
[3]
  pKi: 6.60
[4]
  pKi: 5.74
[5]
  pKi: 6.82
[6]
  pIC50: 5.55
[7]; H1
  Four parameter Hill slope (or fit slope) ratio; Ca2+ signaling: 0.79
[7]
  pIC50: 7.80
[8]
  Hill plot ratio (Hill slope): 1.04
  pKi: 8.25 and 8.23
[9]
  pKi: 6.32
[10]
  Four parameter Hill slope (or fit slope) ratio; Ca2+ signaling: 1.54
  pIC50: 6.24
[11]; 5-HT2C
  Four parameter Hill slope (or fit slope) ratio; Ca2+ signaling: 0.94
[11]
  pIC50: 5.91
[12]
  Four parameter Hill slope (or fit slope) ratio; Ca2+ signaling: 1.27
  pIC50: 7.04 and 6.85
[13]; M1
  Four parameter Hill slope (or fit slope) ratio; Ca2+ signaling: 0.62
[13]
  pIC50: 8.06

## CN(C)CCC=C1c2ccccc2C=Cc2ccccc21 [cyclobenzaprine, 3-(5H-dibenzo[a,d]cyclohepten-5-ylidene)-N,N-dimethyl-1-propanamine]
[1]; [14]
  IC50: 91 nM
[2]; [14]
  IC50: 790 nM
[3]
  pKi: 6.74
[4]
  pKi: 6.44
[5]
  pKi: 7.68
[6]
  pIC50: 5.70
[7]
  pIC50: 8.28
[8]
  pKi: 8.89
[9]; [14]
  IC50: 2000 nM
[10]
  pIC50: 7.00
[11]; 5-HT2C, read-out: IC50 (nM) (Antagonist)
  IC50: 444 nM
[11]
  pIC50: 6.36
[12]
  pIC50: 6.64
[13]
  pIC50: 9.15
